From patent US5015659A, “Thienylacetic acid derivatives, process for the preparation thereof, the use thereof, and pharmaceuticals containing these and the preparation thereof” (Cassella Aktiengesellschaft, priority 1989, dated 1991)
pKd: −log10 of the molar value. Counter-ions that a name gives are not always drawn. Each block holds one compound with its values, some of them ahead of it.

Columns and labels:
[1] = test system: Ischaemia-induced amnesia in the Mongolian gerbil; assay: Ischaemia-induced amnesia, passive-avoidance learning after brief bilateral cerebral ischaemia; type: in vivo; conditions: for Ischaemia-induced learning impairment, % reversal of learning impairment: immediately after the end of ischaemia; for ED50: Meriones unguiculatus, ip, i.p. immediately after the end of ischaemia (3-5 min), read-out: Dose which elicits a half-maximum (about 50%) antagonism of the learning impairment
Method: Brief bilateral cerebral ischaemia (3-5 min) in the gerbil leads to a prolonged learning impairment in passive-avoidance learning. The learning impairment can be antagonized if the animals are treated intraperitoneally with the compounds of the general formula I immediately after the end of ischaemia. The table which follows indicates the dosages which elicit a half-maximum (about 50%) antagonism of the learning impairment. The compounds according to the invention show a pronounced superiority to the compounds of the state of the art.

glycine receptor = assay: Receptor-binding studies in vitro, rat cortex synaptosomes; conditions: for pKd: read-out: Binding to glycine receptors in the brain, Kd
[2] = test system: Scopolamine-induced amnesia in the mouse; assay: Scopolamine-induced amnesia, passive-avoidance learning test; type: in vivo; conditions: scopolamine 3 mg/kg i.p.; for Scopolamine amnesia, % reversal of amnesia: 30 mg/kg oral pretreatment
Method: 1) Scopolamine-induced amnesia in the mouse
Injection of a scopolamine dose of 3 mg/kg i.p. leads to an amnesia in a passive-avoidance learning test.

Structure (SMILES): NC(=O)CN1CC(O)CC1=O (stereo not shown) [Oxiracetam, reference compound]
Ischaemia-induced learning impairment, % reversal of learning impairment ([1]; 100.00 mg/kg ip): 46% | ED50 [1]: 100 mg/kg

pKd (glycine receptor): 5.74
Structure (SMILES): Cl.NCC(=O)NC(C(=O)O)c1cccs1 (stereo not shown) [Example 9, 2-Thienyl-N-aminoacetylaminoacetic acid hydrochloride]
Ischaemia-induced learning impairment, % reversal of learning impairment ([1]; 0.10 mg/kg ip): 54% | ED50 [1]: 0.1 mg/kg

Structure (SMILES): NC(=O)CN1CCCC1=O [Piracetam, reference compound]
Scopolamine amnesia, % reversal of amnesia [2]: 18% | antagonism of scopolamine-induced amnesia (in words) ([2]; oral pretreatment): only marginal activity | Binding to glycine receptors in the brain (in words) (glycine receptor): No specific binding

Structure (SMILES): NC(=O)CNC(C(=O)O)c1cccs1 (stereo not shown) [Example 5, 2-Thienyl-N-aminocarbonylmethylaminoacetic acid]
Scopolamine amnesia, % reversal of amnesia [2]: 56% | Ischaemia-induced learning impairment, % reversal of learning impairment ([1]; 1.00 mg/kg ip): 51% | ED50 [1]: 1 mg/kg

pKd (glycine receptor): 5.74
Structure (SMILES): NC(C(=O)NCC(=O)O)c1cccs1 (stereo not shown) [Example 11, N-(2-Thienylaminoacetyl)glycine]
Ischaemia-induced learning impairment, % reversal of learning impairment ([1]; 1.00 mg/kg ip): 54% | ED50 [1]: 1 mg/kg

Structure (SMILES): NC(=O)C(NCC(=O)O)c1cccs1 (stereo not shown) [Example 8, 2-Thienyl-N-hydroxycarbonylmethylaminoacetamide hydrochloride]
Scopolamine amnesia, % reversal of amnesia [2]: 71% | Ischaemia-induced learning impairment, % reversal of learning impairment ([1]; 0.03 mg/kg ip): 58% | ED50 [1]: 0.03 mg/kg

Structure (SMILES): COc1ccc(C(=O)N2CCCC2=O)cc1 [Aniracetam, reference compound]
Ischaemia-induced learning impairment, % reversal of learning impairment ([1]; 30.00 mg/kg ip): 45% | ED50 [1]: 30 mg/kg
